One data set has as its system aldosterone. In words: Aldosterone-antagonistic activity in adrenalectomised rats (urine volume, sodium and potassium excretion). The format is in vivo, Female Holtzmann rats. The following applies: for Volume (urine volume) in %, based on control animals / [K+] (potassium excretion) in %, based on control animals / [Na+] (sodium excretion) in %, based on control animals: 1 mg/kg p.o., 30 min before aldosterone s.c., urine collected 3 hours, vs animals treated only with aldosterone. As for the experimental part: If compounds of formula I are administered to the animals before the treatment with aldosterone, then there is observed, in comparison to animals which are treated only with aldosterone (control animals), a pronounced increase of the sodium excretion (i.e. the sodium retention caused by aldosterone is antagonised), whereas the potassium excretion and the urine volume are influenced to a lesser extent.
The standard experiment is carried out as follows:
Female Holtzmann rats (150-180 g) are bilaterally adrenalectomised 70 to 74 hours before the beginning of the experiment. After the operation, the animals receive a customary rat dry feed and 0.9% sodium chloride solution for drinking. 16-17 hours before the beginning of the experiment the feed is removed from the animals, but they can subsequently drink, as before, 0.9% sodium chloride solution ad libitum. At the beginning of the experiment the substance to be tested as an aldosterone-antagonist is administered to the animals by means of a stomach probe. 30 minutes later the animals receive a subcutaneous injection of […] of aldosterone. After a further 90 minutes, the urinary bladders of the animals are emptied by careful suprapubic pressure, whereupon the animals are placed individually in metabolic cages without food and without drink. The urine of the animals is then collected for 3 hours, whereupon their urinary bladders are once more emptied. The spontaneously excreted urine and the remaining urine obtained at the conclusion of the experiment by pressing-out the urinary bladders are collected in graduated centrifuge glasses. Sodium and potassium concentrations in the urine are determined with a flame photometer.
(§1) The following Table contains results obtained in the previously described experiment with representative compounds of formula I. In this Table there are given for each of the compounds in question the dosage administered (in mg/kg p.o.) as well as the percentage variation in the urine volume, the sodium excretion and the potassium excretion in comparison with the control animals (i.e. in comparison with the animals treated only with aldosterone). Moreover, the Table contains data concerning the acute toxicity of the compounds investigated (LD 50 in mg/kg in the case of single oral administration to mice).

The nature of data set [1]: Acute toxicity, single oral administration to mice. To be noted: mouse, in vivo, single oral administration (p.o.).
Excerpt: as §1

The LD50 is the dose expected to kill half of the subjects tested. Read a high LD50 as lower toxicity.

Regarding `CN1C(=O)CN=C(c2ccccc2)c2cc(CNC(=O)NCCO)ccc21` [Example 22, 1-[(2,3-dihydro-1-methyl-2-oxo-5-phenyl-1H-1,4-benzodiazepin-7-yl)methyl]-3-(2-hydroxyethyl)urea], in the data set with aldosterone, the “Volume (urine volume) in %, based on control animals” value (“Volume (urine volume) in %, based” below) came out at 130%; the “[K+] (potassium excretion) in %, based on control animals” value (shortened to “[K+] (potassium excretion) in %, based”) came to 82%; the “[Na+] (sodium excretion) in %, based on control animals” value (from here on “[Na+] (sodium excretion) in %, based”) stood at 224%. In data set [1], this compound registered an LD50 greater than 5000 mg/kg.
For the compound `CCN1C(=O)CN=C(c2ccccc2F)c2cc(C(C)OCOC)ccc21` (stereo not drawn) [Example 9a, 1-ethyl-5-(o-fluorophenyl)-1,3-dihydro-7-[1-(methoxymethoxy)ethyl]-2H-1,4-benzodiazepin-2-one], in the data set on aldosterone, the “Volume (urine volume) in %, based” value was 138%; the “[K+] (potassium excretion) in %, based” value stood at 93%; the “[Na+] (sodium excretion) in %, based” value was 359%. The compound also showed an LD50 in data set [1] of 500 mg/kg.
Consider `C[C@]12CCC(=O)C=C1CC[C@@H]1[C@@H]2[C@@H](O)C[C@]2(C=O)[C@@H](C(=O)CO)CC[C@@H]12` [aldosterone, reference compound], for which, in the data set with aldosterone (vs untreated animals, in words), the “excreted urine volume after aldosterone” value was “reduction of the excreted urine volume”, the “potassium excretion after aldosterone” value was “increased potassium excretion” and the “sodium excretion after aldosterone” value was “pronounced reduction of the sodium excretion”.
With `CCN1C(=O)CNC(c2ccccc2F)c2cc(C(C)N(C)C)ccc21` (stereo not drawn) [Example 7a, 7-[1-(dimethylamino)ethyl]-1-ethyl-5-(o-fluorophenyl)-1,3,4,5-tetrahydro-2H-1,4-benzodiazepin-2-one], in the data set with aldosterone, the “Volume (urine volume) in %, based” value is 147%; the “[K+] (potassium excretion) in %, based” value is on record as 90%; the “[Na+] (sodium excretion) in %, based” value is 252%. Further, the LD50 in data set [1] came out at 500 mg/kg.
On the same counts, the results for `CCN1C(=O)CNC(c2ccccc2F)c2cc(C(C)=NO)ccc21` (stereo not drawn) [Example 5] are 157%, 87%, 247% and greater than 5000 mg/kg.
In the same order, the values of `CCN1C(=O)CNC(c2ccccc2F)c2cc(C(C)NCCO)ccc21` (stereo not drawn) [Example 6, 1-ethyl-5-(o-fluorophenyl)-1,3,4,5-tetrahydro-7-/1-[(2-hydroxyethyl)-amino]ethyl/-2H-1,4-benzodiazepin-2-one] are 150%, 93%, 306% and 4000 mg/kg.
On the same counts, the results for `CC1N=C(c2ccccc2F)c2cc(C(C)N)ccc2N(C)C1=O` (stereo not drawn) [Example 2, 7-(1-aminoethyl)-5-(o-fluorophenyl)-1,3-dihydro-1,3-dimethyl-2H-1,4-benzodiazepin-2-one] are 169%, 102%, 298% and 625 mg/kg.

Source of the values: patent US4327026A, “Benzodiazepine derivatives” (Hoffmann-La Roche Inc., priority 1980, dated 1982).
